Among the test systems are CAKI-1 renal; SK-MEL-2 melanoma; RXF 393 renal; A498 renal; OVCAR-3 ovarian; NCI-H522 lung; HOP-62 NSCLC; ACHN renal; HCT-116 colon; MALME-3M melanoma.
Common to all, as to test: NCI-60 cell line screen, 48 h

Each structure is given as a SMILES string.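 Cells were grown in 96-well plates and exposed to each compound for 48 hours at five concentrations; endpoints were interpolated linearly between bracketing concentrations, or set to the highest concentration if not reached. GI50: concentration for 50% inhibition of growth. At the TGI there is no net growth.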

For the molecule `CCCCC(C)C(OC(=O)CC(CC(=O)O)C(=O)O)C(CC(C)CC(O)CCCCC(O)CC(O)C(C)N)OC(=O)CC(CC(=O)O)C(=O)O` (stereo not given), the TGI with CAKI-1 renal, in the experiment on SK-MEL-2 melanoma, in the experiment with RXF 393 renal, with A498 renal, in the experiment on OVCAR-3 ovarian and with NCI-H522 lung was over 100 µM throughout. The TGI with HOP-62 NSCLC, with ACHN renal, with HCT-116 colon and in the experiment on MALME-3M melanoma was over 100 µM throughout.
With `O=C(O)C1CC2(C1)CC(C(=O)O)C2` (stereo not given), the TGI in the experiment with CAKI-1 renal, in the experiment on SK-MEL-2 melanoma, in the experiment with RXF 393 renal, in the experiment with A498 renal, in the experiment on OVCAR-3 ovarian and in the experiment with NCI-H522 lung was over 100 µM in each case. Besides, the TGI with HOP-62 NSCLC, in the experiment with ACHN renal, with HCT-116 colon and in the experiment with MALME-3M melanoma was over 100 µM throughout.
Take `CCOc1cc(Br)c(C(C)NC(=O)c2cccc(OC)c2)cc1OCC` (stereo not given): the GI50 with CAKI-1 renal was 13.3 µM; with SK-MEL-2 melanoma, 5.54 µM; with RXF 393 renal it was 12.6 µM; with A498 renal it was 0.866 µM; in the experiment on OVCAR-3 ovarian it was 5.42 µM; with NCI-H522 lung it was 6.83 µM. Also, the GI50 is 10.6 µM with HOP-62 NSCLC, 21.1 µM in the experiment with ACHN renal, 4.39 µM in the experiment on HCT-116 colon and 9.9 µM in the experiment with MALME-3M melanoma. The TGI is over 100 µM in the experiment on CAKI-1 renal; over 76.7 µM with SK-MEL-2 melanoma; over 100 µM in the experiment on RXF 393 renal; 25.5 µM with A498 renal; 38.7 µM in the experiment with OVCAR-3 ovarian; 54.4 µM in the experiment on NCI-H522 lung. Besides, the TGI in the experiment with HOP-62 NSCLC was over 100 µM; in the experiment on ACHN renal it was over 100 µM; in the experiment with HCT-116 colon, over 100 µM; in the experiment on MALME-3M melanoma, over 89.3 µM.
With `O=C(O)c1cn(C2CC2)c2cc(N3CCN(C(=O)Nc4nc(-c5ccccc5)cs4)CC3)c(F)cc2c1=O`, the GI50 in the experiment on CAKI-1 renal is 3.59 µM; in the experiment with SK-MEL-2 melanoma it was 1.85 µM; in the experiment with RXF 393 renal it was 1.53 µM; in the experiment with A498 renal, 1.06 µM; with OVCAR-3 ovarian it was 0.582 µM; in the experiment on NCI-H522 lung, 1.39 µM. Also, the GI50 in the experiment with HOP-62 NSCLC is 2.67 µM; in the experiment on ACHN renal, 0.894 µM; in the experiment on HCT-116 colon it was 0.647 µM; with MALME-3M melanoma it was 1.53 µM. The TGI in the experiment with CAKI-1 renal is over 100 µM; in the experiment with SK-MEL-2 melanoma it was 6.42 µM; in the experiment with RXF 393 renal it was 26.3 µM; in the experiment with A498 renal, 7.08 µM; with OVCAR-3 ovarian, 16.5 µM; with NCI-H522 lung, 6.26 µM. For the same molecule, the TGI is 82.4 µM in the experiment on HOP-62 NSCLC, 7.54 µM in the experiment on ACHN renal, over 100 µM in the experiment on HCT-116 colon and 6.52 µM in the experiment on MALME-3M melanoma.
For the molecule `COc1ccc(/C=c2\sc3n(c2=O)C2C(NN=3)N(C)C(=O)N2C)cc1` (stereo not given), the GI50 is 0.563 µM in the experiment with CAKI-1 renal; 2.31 µM in the experiment with SK-MEL-2 melanoma; 0.603 µM in the experiment on RXF 393 renal; 0.113 µM in the experiment on A498 renal; 0.481 µM in the experiment with OVCAR-3 ovarian; 0.877 µM in the experiment with NCI-H522 lung. Besides, the GI50 in the experiment on HOP-62 NSCLC is 1.29 µM; with ACHN renal, 1.53 µM; in the experiment on HCT-116 colon, 0.483 µM; with MALME-3M melanoma, 1.19 µM. Further, the TGI was over 100 µM in the experiment with CAKI-1 renal; over 100 µM in the experiment on SK-MEL-2 melanoma; 2.75 µM in the experiment with RXF 393 renal; 1.49 µM with A498 renal; 3.53 µM in the experiment with OVCAR-3 ovarian; over 100 µM in the experiment on NCI-H522 lung. The TGI in the experiment on HOP-62 NSCLC, in the experiment on ACHN renal, in the experiment on HCT-116 colon and in the experiment with MALME-3M melanoma was over 100 µM each time.
As to `Cc1ccc(C(NC(=O)c2ccccc2)c2ccc3cccnc3c2O)cc1` (stereo not given), the GI50 was 0.328 µM with CAKI-1 renal; 0.608 µM with SK-MEL-2 melanoma; 0.252 µM in the experiment on RXF 393 renal; 0.376 µM in the experiment with A498 renal; 0.351 µM with OVCAR-3 ovarian; 0.31 µM in the experiment on NCI-H522 lung. Further, the GI50 in the experiment on HOP-62 NSCLC was 0.487 µM; in the experiment with ACHN renal it was 0.285 µM; in the experiment with HCT-116 colon it was 0.303 µM; with MALME-3M melanoma, 0.441 µM. For the same molecule, the TGI in the experiment on CAKI-1 renal was over 50.7 µM; in the experiment on SK-MEL-2 melanoma it was 10.3 µM; in the experiment with RXF 393 renal, 1.58 µM; in the experiment on A498 renal, 7.88 µM; with OVCAR-3 ovarian, 18.2 µM; in the experiment with NCI-H522 lung, 2.74 µM. Also, the TGI was over 41.6 µM in the experiment on HOP-62 NSCLC, 15.4 µM with ACHN renal, 13.8 µM with HCT-116 colon and 12.3 µM in the experiment on MALME-3M melanoma.
`CCN1C(=O)CCCc2c1ccc(Nc1ncc(Cl)c(NC3[C@@H](C(N)=O)[C@@H]4C=C[C@H]3C4)n1)c2OC` (stereo not given in full): the GI50 is 0.919 µM in the experiment with CAKI-1 renal; 1.44 µM with SK-MEL-2 melanoma; 1.22 µM in the experiment with RXF 393 renal; 0.529 µM in the experiment on A498 renal; 2.14 µM with OVCAR-3 ovarian; 1.16 µM with NCI-H522 lung. Moreover, the GI50 is 2.1 µM with HOP-62 NSCLC, 2.07 µM in the experiment with ACHN renal, 0.805 µM in the experiment on HCT-116 colon and 0.998 µM in the experiment on MALME-3M melanoma. The TGI stood at 4.48 µM in the experiment on CAKI-1 renal; 3.79 µM with SK-MEL-2 melanoma; 3.38 µM with RXF 393 renal; 2.65 µM with A498 renal; 10.6 µM in the experiment with OVCAR-3 ovarian; 6.13 µM with NCI-H522 lung. Moreover, the TGI is 13.7 µM in the experiment on HOP-62 NSCLC, over 30.2 µM in the experiment on ACHN renal, 7.43 µM in the experiment with HCT-116 colon and 3.4 µM in the experiment on MALME-3M melanoma.
In the case of `Cc1cc2cc3ccc(N(C)C)cc3nc2cc1N`, the GI50 was 0.321 µM in the experiment with CAKI-1 renal; 0.392 µM in the experiment on SK-MEL-2 melanoma; 0.41 µM with RXF 393 renal; 0.433 µM in the experiment on A498 renal; 0.502 µM with OVCAR-3 ovarian; 0.612 µM in the experiment with NCI-H522 lung. The GI50 in the experiment on HOP-62 NSCLC was 0.481 µM; in the experiment with ACHN renal, 0.423 µM; in the experiment on HCT-116 colon, 0.279 µM; in the experiment with MALME-3M melanoma, 0.929 µM. Further, the TGI in the experiment with CAKI-1 renal was 1.35 µM; in the experiment with SK-MEL-2 melanoma, 1.6 µM; with RXF 393 renal it was 1.34 µM; in the experiment on A498 renal it was 2.05 µM; in the experiment with OVCAR-3 ovarian it was 2.45 µM; in the experiment on NCI-H522 lung it was 2.4 µM. Besides, the TGI is 2.45 µM in the experiment on HOP-62 NSCLC, 5.75 µM in the experiment with ACHN renal, 1.45 µM with HCT-116 colon and 3.42 µM with MALME-3M melanoma.

The record behind these values is PubChem BioAssay (NCI).
